The values that follow come from ChEMBL document CHEMBL1158596, “Synthetic studies on selective adenosine A2A receptor antagonists. Part II: synthesis and structure-activity relationships of novel benzofuran derivatives” (Bioorg Med Chem Lett, 2010).

By inhibition in vivo is commonly meant the percentage by which the read-out fell short of the control. One may read the inhibition as the drop in the measured response relative to a control, in per cent. By CLint scaled is commonly meant the rate of metabolic loss divided by the concentration. Lower therefore signals slow turnover. In general, solubility refers to the dissolved amount per volume that the medium holds. The low end stands for little dissolved substance, the high end for much dissolved substance.

Data set [1] deals with Mus musculus. Briefly: Antiparkinsonian effect in mouse assessed as inhibition of CGS-21680-induced catalepsy at 10 mg/kg, po. Type of data set: functional. The note with it: for inhibition in vivo at 10 mg/kg: Mus musculus.
Data set [2] concerns the target Adenosine receptor A2a (Homo sapiens) (UniProt P29274). Description: Displacement of [3H]CGS21680 from human adenosine A2A receptor at 0.01 umol/L by scintillation counting. Background: Displacement assays read how much labelled ligand stays bound in the presence of the test substance.
A short description of data set [3]: Intrinsic clearance in human liver microsome. The format is ADME. The note with it: liver microsomes. (Liver microsomes are a subcellular fraction often used to study metabolism.)
Data set [4] addresses Adenosine receptor A2a (Homo sapiens) (UniProt P29274). Description: Displacement of [3H]CGS21680 from human adenosine A2A receptor at 0.1 umol/L by scintillation counting.
Data set [5] can be described thus: Solubility n JP2 fluid. Type of data set: physicochemical.
Data set [6] can be described thus: Intrinsic clearance in marmoset liver microsome […]. The format is ADME, Callithrix jacchus. The note with it: liver microsomes.
For data set [7], the target named is T1, Adenosine receptor A2b (Homo sapiens) (UniProt P29275).
T1 sequence (whole entry): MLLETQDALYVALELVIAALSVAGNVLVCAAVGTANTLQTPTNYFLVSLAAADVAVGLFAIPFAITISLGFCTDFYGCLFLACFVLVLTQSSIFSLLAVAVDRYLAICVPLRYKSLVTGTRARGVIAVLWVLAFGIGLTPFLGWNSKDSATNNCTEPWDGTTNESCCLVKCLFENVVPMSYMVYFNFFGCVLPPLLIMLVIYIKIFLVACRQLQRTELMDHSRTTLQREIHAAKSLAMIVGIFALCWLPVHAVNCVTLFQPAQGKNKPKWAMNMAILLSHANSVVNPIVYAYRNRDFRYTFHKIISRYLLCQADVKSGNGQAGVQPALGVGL
Briefly: Antagonist activity at human adenosine A2B receptor at 1 umol/L. Type of data set: functional.

Data set [8] addresses T2, Adenosine receptor A1 (Homo sapiens) (UniProt P30542).
T2 sequence (whole entry): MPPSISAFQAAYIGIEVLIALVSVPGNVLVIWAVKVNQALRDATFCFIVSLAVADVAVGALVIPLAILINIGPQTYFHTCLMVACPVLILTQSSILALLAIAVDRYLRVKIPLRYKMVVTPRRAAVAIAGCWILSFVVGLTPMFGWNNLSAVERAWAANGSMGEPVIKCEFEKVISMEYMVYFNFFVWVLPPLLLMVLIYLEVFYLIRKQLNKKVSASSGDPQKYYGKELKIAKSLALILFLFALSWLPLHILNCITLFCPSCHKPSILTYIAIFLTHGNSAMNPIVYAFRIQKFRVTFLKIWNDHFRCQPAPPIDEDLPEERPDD
Description: Antagonist activity at human adenosine A1 receptor at 1 umol/L. The format is functional.

In brackets after ≈: the same amount, converted by molar mass. Some results are limits rather than exact numbers.

Chain of Adenosine receptor A2a (Homo sapiens) (P29274 whole entry): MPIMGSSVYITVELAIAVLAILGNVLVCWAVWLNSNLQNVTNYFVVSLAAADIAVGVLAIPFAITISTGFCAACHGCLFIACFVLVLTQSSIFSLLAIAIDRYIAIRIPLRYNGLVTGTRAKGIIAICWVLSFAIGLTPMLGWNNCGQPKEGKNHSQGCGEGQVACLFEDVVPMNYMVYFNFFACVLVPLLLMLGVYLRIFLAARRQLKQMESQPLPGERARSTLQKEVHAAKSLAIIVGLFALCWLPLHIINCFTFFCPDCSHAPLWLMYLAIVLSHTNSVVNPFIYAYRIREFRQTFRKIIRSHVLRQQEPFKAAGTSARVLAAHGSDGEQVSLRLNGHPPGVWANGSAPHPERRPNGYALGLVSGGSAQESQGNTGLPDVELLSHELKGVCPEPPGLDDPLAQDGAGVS

Take `COc1ccc(-c2cccnc2)c2cc(C(=O)Nc3ccc(Cn4ccnc4)cc3)oc12`: the inhibition in vivo at 10 mg/kg in data set [1] came out at 60%. Also, the results for the inhibition in data set [2] and in data set [4] were 46% and 83%, respectively. The compound further showed an intrinsic clearance (CLint scaled) in data set [3] of 53 mL/min/kg.

With `COc1ccc(N2CCOCC2)c2cc(C(=O)Nc3ccc(CN4CCC(O)CC4)cc3)oc12`, the concentration in solution in data set [5] (solubility) came to 47 µg/mL (≈ 101 µM). Further, the inhibition in vivo at 10 mg/kg in data set [1] is 50%. Moreover, the results for the inhibition in data set [2] and in data set [4] were 39% and 74%, respectively.

Turning to `COc1ccc(N2CCOCC2)c2cc(C(=O)Nc3ccc(Cn4ccnc4)cc3)oc12`, the solubility in data set [5] came out at 2 µg/mL (≈ 4.62 µM). The compound further had an intrinsic clearance (CLint scaled) in data set [6] of 133 mL/min/kg. In addition, the values for the inhibition in data set [2] and in data set [4] were 50% and 89%, respectively.

With `COc1ccc(-c2cnccn2)c2cc(C(=O)Nc3ccncc3)oc12`, the figures for the inhibition in data set [2] and in data set [4] were 24% and 22%, respectively. In data set [3], this compound had a CLint scaled of 154 mL/min/kg.

In turn, `CNC(=O)c1cc2c(N3CCOCC3)ccc(OC)c2o1` displayed a solubility in data set [5] of 97 µg/mL (≈ 334 µM). In data set [6], this compound gave an intrinsic metabolic clearance (CLint scaled) of 21.7 mL/min/kg. The inhibition in data set [2] came to 23%; in data set [4], 58%.

With `COc1ccc(-c2ccccn2)c2cc(C(=O)Nc3ccncc3)oc12`, the inhibition worked out at 4% in data set [2] and 27% in data set [4]. This compound had a CLint scaled in data set [3] of 37.2 mL/min/kg.

As for `COc1ccc(N2CCOCC2)c2oc(C(=O)Nc3ccncc3)cc12`, the inhibition in data set [2] is 26%; in data set [4], 77%.

In the case of `COc1ccc(-c2ccncc2)c2cc(C(=O)Nc3ccc(Cn4ccnc4)cc3)oc12`, the inhibition in vivo at 10 mg/kg in data set [1] turned out to be 60%. For the same compound, the figures for the inhibition in data set [2] and in data set [4] were 56% and 90%, respectively. For the same compound, in data set [3], the CLint scaled was 40.7 mL/min/kg.

On to `COc1ccc(-c2cnccn2)c2cc(C(=O)Nc3ccc(Cn4ccnc4)cc3)oc12`, for which the inhibition worked out at 20% in data set [2] and 44% in data set [4]. The CLint scaled in data set [3] was less than 7.83 mL/min/kg.

`COc1c(N2CCOCC2)ccc2cc(C(=O)Nc3ccncc3)oc12`: in data set [4], the inhibition is -5%.

With `COc1ccc(-c2ccccc2)c2cc(C(=O)Nc3ccncc3)oc12`, the inhibition (INH) in data set [1] amounted to 40%. Besides, the figures for the inhibition in data set [2] and in data set [4] were 29% and 87%, respectively. For the same compound, in data set [3], the intrinsic clearance (CLint scaled) was 580 mL/min/kg.

For `CCNC(=O)c1cc2c(N3CCOCC3)ccc(OC)c2o1`, the inhibition in vivo at 10 mg/kg in data set [1] amounted to 44%. The results for the inhibition in data set [2] and in data set [4] were 37% and 87%, respectively.

For the compound `COc1ccc(-c2cccnc2)c2cc(C(=O)Nc3ccncc3)oc12`, in data set [1], the inhibition in vivo at 10 mg/kg amounted to 38%. The inhibition amounted to 27% in data set [2] and 67% in data set [4]. Also, the CLint scaled in data set [3] was 57 mL/min/kg.

In data set [5], `COc1ccc(N2CCOCC2)c2cc(C(=O)Nc3ccncc3)oc12` showed a solubility of 87 µg/mL (≈ 246 µM). Further, the inhibition in data set [7] turned out to be 21%; in data set [2], 30%; in data set [8], 4%; in data set [4] it was 73%. In addition, the inhibition in vivo at 10 mg/kg in data set [1] was 76%. For the same compound, the intrinsic clearance (CLint scaled) in data set [6] is less than 7.17 mL/min/kg.

Take `COc1ccc(-c2ccncc2)c2cc(C(=O)Nc3ccncc3)oc12`: the inhibition in vivo at 10 mg/kg in data set [1] turned out to be 48%. In addition, the inhibition in data set [2] was 18%; in data set [4], 72%. In data set [3], this compound had a CLint scaled of 32.8 mL/min/kg.

Consider `COc1ccc(N2CCOCC2)c2cc(C(=O)NC3CCN(c4ncccn4)CC3)oc12`, for which the results for the inhibition in data set [2] and in data set [4] were -2% and 26%, respectively.
